Key:
[1] = system: S. aureus DSM 20231; experiment: fitness (endpoint OD595 vs no drug) (fraction); higher = more growth
Outline: (§1)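 Fitness was measured as bacterial growth in 384-well plates inoculated at OD595 0.01 (30 µl, or 55 µl for S. pneumoniae). Media were TSB, LB Lennox or CY, at 37 °C. OD595 was read every 30 min for 14 h and background-subtracted against the first reading. Fitness is OD595 at the transition into stationary phase divided by the robust mean of no-drug control wells, capped at 1.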

[2] = system: S. aureus Newman; experiment: as above
Outline: as §1

[3] = system: S. aureus DSM 20231; experiment: Bliss interaction score (quartile over a dose matrix) (fitness difference); higher = more antagonism (negative = synergy)
Outline: (§2)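 The Bliss score was calculated by subtracting the expected fitness, the product of single-drug values, from the observed fitness. OD595 at entry into stationary phase, over the plate's robust no-drug mean and capped at 1, served as the fitness readout. Single-drug values were inferred from combination data, and scores are summarised by quartiles across technical, biological and donor/recipient replicates.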

[4] = system: B. subtilis 168; experiment: as above
Outline: as §2

[5] = system: S. aureus Newman; experiment: as above
Outline: as §2

[6] = system: S. pneumoniae D39V; experiment: as above
Outline: as §2
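For Bliss interaction score (quartile over a dose matrix) in this document: first quartile when negative (synergy) and third quartile when positive (antagonism).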

O=C(N[C@H](CO)[C@H](O)c1ccc([N+](=O)[O-])cc1)C(Cl)Cl [Chloramphenicol] + CN(N=O)C(=O)N[C@@H](C=O)[C@@H](O)[C@H](O)[C@H](O)CO [Streptozotocin]
fitness
Details	first compound 0.75 µg/mL	first compound 1.5 µg/mL	first compound 3 µg/mL
[1], partner 0.15 µg/mL	0.677	0.481	0.104
[1], partner 0.3 µg/mL	0.603	0.46	0.1
[1], partner 0.6 µg/mL	0.616	0.385	0.0772
[2], partner 0.15 µg/mL	0.705	0.464	–
[2], partner 0.3 µg/mL	0.605	0.402	0.0999
[2], partner 0.6 µg/mL	0.47	0.295	0.0766

Details	Bliss interaction score
[3]	-0.0514
[4]	0.0462
[5]	0.0386
[6]	-0.0846

O=C(O[C@@H]1Cc2c(O)cc(O)cc2O[C@@H]1c1cc(O)c(O)c(O)c1)c1cc(O)c(O)c(O)c1 [EGCG] + CCCCCCCCCC(=O)N[C@@H]1[C@H]([C@@H]([C@H](O[C@H]1OC2=C3C=C4C=C2OC5=C(C=C(C=C5)[C@H]([C@H]6C(=O)N[C@@H](C7=C(C(=CC(=C7)O)OC8[C@H]([C@H]([C@@H]([C@H](O8)CO)O)O)O)C9=C(C=CC(=C9)[C@H](C(=O)N6)NC(=O)[C@@H]4NC(=O)[C@@H]1C2=CC(=CC(=C2)OC2=C(C=CC(=C2)[C@H](C(=O)N[C@H](CC2=CC(=C(O3)C=C2)Cl)C(=O)N1)N)O)O)O)C(=O)O)O[C@H]1[C@@H]([C@H]([C@@H]([C@H](O1)CO)O)O)NC(=O)C)Cl)CO)O)O [Teicoplanin]
fitness, main component drawn
Details	first compound 12.5 µg/mL	first compound 25 µg/mL	first compound 50 µg/mL
[1], partner 0.1562 µg/mL	0.846	0.833	0.892
[1], partner 0.3125 µg/mL	0.957	0.968	0.959
[1], partner 0.625 µg/mL	0.935	≥ 1	–
[2], partner 0.1562 µg/mL	0.833	0.805	0.749
[2], partner 0.3125 µg/mL	0.716	0.824	0.698
[2], partner 0.625 µg/mL	0.819	0.806	0.823

fitness, [2], one replicate, main component drawn
Details	first compound 12.5 µg/mL	first compound 25 µg/mL	first compound 50 µg/mL
partner 0.62 µg/mL	0.62	0.662	0.558
partner 1.24 µg/mL	0.646	0.604	0.565
partner 2.48 µg/mL	0.538	0.51	0.475

main component drawn
Details	Bliss interaction score
[3]	0.125
[4]	-0.096
[5]	0.0918
[6]	0.0672

COc1c(N2C[C@@H]3CCCN[C@@H]3C2)c(F)cc2c(=O)c(C(=O)O)cn(C3CC3)c12 [Moxifloxacin] + CCCCCCCCCC(=O)N[C@@H]1[C@H]([C@@H]([C@H](O[C@H]1OC2=C3C=C4C=C2OC5=C(C=C(C=C5)[C@H]([C@H]6C(=O)N[C@@H](C7=C(C(=CC(=C7)O)OC8[C@H]([C@H]([C@@H]([C@H](O8)CO)O)O)O)C9=C(C=CC(=C9)[C@H](C(=O)N6)NC(=O)[C@@H]4NC(=O)[C@@H]1C2=CC(=CC(=C2)OC2=C(C=CC(=C2)[C@H](C(=O)N[C@H](CC2=CC(=C(O3)C=C2)Cl)C(=O)N1)N)O)O)O)C(=O)O)O[C@H]1[C@@H]([C@H]([C@@H]([C@H](O1)CO)O)O)NC(=O)C)Cl)CO)O)O [Teicoplanin]
fitness, main component drawn
Details	first compound 0.0075 µg/mL	first compound 0.015 µg/mL	first compound 0.03 µg/mL
[1], partner 0.1562 µg/mL	0.912	0.852	0.748
[1], partner 0.3125 µg/mL	≥ 1	0.94	0.752
[1], partner 0.625 µg/mL	≥ 1	0.991	0.745
[2], partner 0.1562 µg/mL	0.773	0.597	0.0859
[2], partner 0.3125 µg/mL	0.797	0.577	0.0839
[2], partner 0.625 µg/mL	0.717	–	0.06

fitness, one replicate, main component drawn
Details	partner 0.1562 µg/mL	partner 0.3125 µg/mL	partner 0.62 µg/mL	partner 0.625 µg/mL	partner 1.24 µg/mL	partner 2.48 µg/mL
[1], first compound 0.06 µg/mL	0.665	0.7	–	0.697	–	–
[1], first compound 0.12 µg/mL	0.497	0.468	–	0.513	–	–
[2], first compound 0.0075 µg/mL	–	–	0.679	–	0.608	0.337
[2], first compound 0.015 µg/mL	–	–	0.608	–	0.488	0.0713
[2], first compound 0.03 µg/mL	–	–	0.0881	–	0.0113	0.0176

main component drawn
Details	Bliss interaction score
[3]	0.0596
[4]	-0.0201
[5]	-0.0744
[6]	-0.0767

O=C(N[C@H](CO)[C@H](O)c1ccc([N+](=O)[O-])cc1)C(Cl)Cl [Chloramphenicol] + COc1c(N2C[C@@H]3CCCN[C@@H]3C2)c(F)cc2c(=O)c(C(=O)O)cn(C3CC3)c12 [Moxifloxacin]
fitness
Details	first compound 0.75 µg/mL	first compound 1.5 µg/mL	first compound 3 µg/mL
[1], partner 0.0075 µg/mL	0.578	0.633	–
[1], partner 0.015 µg/mL	0.714	0.636	0.113
[1], partner 0.03 µg/mL	0.613	0.562	0.0861
[2], partner 0.0075 µg/mL	0.738	0.566	0.214
[2], partner 0.015 µg/mL	0.647	0.487	0.166
[2], partner 0.03 µg/mL	–	0.364	–

fitness, [1], one replicate
Details	first compound 0.75 µg/mL	first compound 1.5 µg/mL	first compound 3 µg/mL
partner 0.06 µg/mL	0.67	0.635	0.0943
partner 0.12 µg/mL	0.591	0.58	0.118

Details	Bliss interaction score
[3]	0.148
[4]	0.0443
[5]	0.16
[6]	0.0681

— the supplement of paper PMC10627819
